{"source": "PubChem BioAssay (NCI)", "assay_in_all_cases": "NCI anticancer screen, dose series, 48 h", "key": {"CCRF-CEM leukemia": {"test_system": "CCRF-CEM leukemia"}, "COLO 205 colon": {"test_system": "COLO 205 colon"}, "EKVX NSCLC": {"test_system": "EKVX NSCLC"}, "HCT-116 colon": {"test_system": "HCT-116 colon"}, "HL-60(TB) leukemia": {"test_system": "HL-60(TB) leukemia"}, "HOP-62 NSCLC": {"test_system": "HOP-62 NSCLC"}, "MALME-3M melanoma": {"test_system": "MALME-3M melanoma"}, "SF-268 CNS": {"test_system": "SF-268 CNS"}, "SK-MEL-2 melanoma": {"test_system": "SK-MEL-2 melanoma"}, "SNB-19 CNS": {"test_system": "SNB-19 CNS"}}, "note": "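1) Cells in 96-well plates. 2) Compound, 48 h, 5 concentrations. 3) Linear interpolation between surrounding doses. 4) Unreached endpoint = highest concentration. GI50 = concentration required for 50% inhibition of growth. TGI denotes the concentration required for complete inhibition of growth.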"}
{"smiles": "O=C(Nc1ccccc1C(=O)N/N=C(\\c1ccccc1)c1ccccn1)c1ccc(F)cc1", "values": [{"measurement": "GI50", "setting": "CCRF-CEM leukemia", "value": 0.121, "unit": "µM"}, {"measurement": "TGI", "setting": "CCRF-CEM leukemia", "value": "> 100", "unit": "µM"}, {"measurement": "GI50", "setting": "COLO 205 colon", "value": 0.215, "unit": "µM"}, {"measurement": "TGI", "setting": "COLO 205 colon", "value": "> 100", "unit": "µM"}, {"measurement": "GI50", "setting": "EKVX NSCLC", "value": 0.169, "unit": "µM"}, {"measurement": "TGI", "setting": "EKVX NSCLC", "value": "> 100", "unit": "µM"}, {"measurement": "GI50", "setting": "HCT-116 colon", "value": 0.266, "unit": "µM"}, {"measurement": "TGI", "setting": "HCT-116 colon", "value": "> 100", "unit": "µM"}, {"measurement": "GI50", "setting": "HL-60(TB) leukemia", "value": 0.297, "unit": "µM"}, {"measurement": "TGI", "setting": "HL-60(TB) leukemia", "value": 2.01, "unit": "µM"}, {"measurement": "GI50", "setting": "HOP-62 NSCLC", "value": 0.214, "unit": "µM"}, {"measurement": "TGI", "setting": "HOP-62 NSCLC", "value": "> 38.5", "unit": "µM"}, {"measurement": "GI50", "setting": "MALME-3M melanoma", "value": 0.767, "unit": "µM"}, {"measurement": "TGI", "setting": "MALME-3M melanoma", "value": "> 100", "unit": "µM"}, {"measurement": "GI50", "setting": "SF-268 CNS", "value": 0.364, "unit": "µM"}, {"measurement": "TGI", "setting": "SF-268 CNS", "value": "> 100", "unit": "µM"}, {"measurement": "GI50", "setting": "SK-MEL-2 melanoma", "value": 7.01, "unit": "µM"}, {"measurement": "TGI", "setting": "SK-MEL-2 melanoma", "value": "> 100", "unit": "µM"}, {"measurement": "GI50", "setting": "SNB-19 CNS", "value": 0.502, "unit": "µM"}, {"measurement": "TGI", "setting": "SNB-19 CNS", "value": "> 100", "unit": "µM"}]}
{"smiles": "COC(=O)/C(=N/NC(N)=O)C(C(=O)OC)C(=O)C(=O)Nc1ccc(Cl)cc1", "note": "(stereo not given)", "values": [{"measurement": "TGI", "setting": "CCRF-CEM leukemia", "value": "> 75.5", "unit": "µM"}, {"measurement": "TGI", "setting": "COLO 205 colon", "value": "> 100", "unit": "µM"}, {"measurement": "TGI", "setting": "EKVX NSCLC", "value": "> 100", "unit": "µM"}, {"measurement": "TGI", "setting": "HCT-116 colon", "value": "> 100", "unit": "µM"}, {"measurement": "TGI", "setting": "HL-60(TB) leukemia", "value": "> 100", "unit": "µM"}, {"measurement": "TGI", "setting": "HOP-62 NSCLC", "value": "> 100", "unit": "µM"}, {"measurement": "TGI", "setting": "MALME-3M melanoma", "value": "> 100", "unit": "µM"}, {"measurement": "TGI", "setting": "SF-268 CNS", "value": "> 100", "unit": "µM"}, {"measurement": "TGI", "setting": "SK-MEL-2 melanoma", "value": "> 100", "unit": "µM"}, {"measurement": "TGI", "setting": "SNB-19 CNS", "value": "> 100", "unit": "µM"}]}
{"smiles": "CCSC(SCC)=C1C(=O)N(c2ccccc2)N=C1C", "values": [{"measurement": "TGI", "setting": "CCRF-CEM leukemia", "value": 11, "unit": "µM"}, {"measurement": "TGI", "setting": "COLO 205 colon", "value": 7.08, "unit": "µM"}, {"measurement": "TGI", "setting": "EKVX NSCLC", "value": 28.5, "unit": "µM"}, {"measurement": "TGI", "setting": "HCT-116 colon", "value": 28.3, "unit": "µM"}, {"measurement": "TGI", "setting": "HL-60(TB) leukemia", "value": 7.35, "unit": "µM"}, {"measurement": "TGI", "setting": "HOP-62 NSCLC", "value": 53.7, "unit": "µM"}, {"measurement": "TGI", "setting": "MALME-3M melanoma", "value": 28.3, "unit": "µM"}, {"measurement": "TGI", "setting": "SF-268 CNS", "value": 29.1, "unit": "µM"}, {"measurement": "TGI", "setting": "SK-MEL-2 melanoma", "value": 33, "unit": "µM"}, {"measurement": "TGI", "setting": "SNB-19 CNS", "value": 62.8, "unit": "µM"}]}
{"smiles": "COc1ccc(C(O)CC(O)(C(F)(F)F)C(F)(F)F)cc1", "note": "(stereo not given)", "values": [{"measurement": "TGI", "setting": "CCRF-CEM leukemia", "value": 45.7, "unit": "µM"}, {"measurement": "TGI", "setting": "COLO 205 colon", "value": 33.8, "unit": "µM"}, {"measurement": "TGI", "setting": "EKVX NSCLC", "value": "> 100", "unit": "µM"}, {"measurement": "TGI", "setting": "HCT-116 colon", "value": 38.1, "unit": "µM"}, {"measurement": "TGI", "setting": "HL-60(TB) leukemia", "value": 37, "unit": "µM"}, {"measurement": "TGI", "setting": "HOP-62 NSCLC", "value": "> 100", "unit": "µM"}, {"measurement": "TGI", "setting": "MALME-3M melanoma", "value": 49.1, "unit": "µM"}, {"measurement": "TGI", "setting": "SF-268 CNS", "value": "> 100", "unit": "µM"}, {"measurement": "TGI", "setting": "SK-MEL-2 melanoma", "value": 40.8, "unit": "µM"}, {"measurement": "TGI", "setting": "SNB-19 CNS", "value": "> 100", "unit": "µM"}]}
{"smiles": "O=S(=O)(c1ccc(O)c(C=Nc2ccc(Cl)cc2)c1)c1ccc(O)c(C=Nc2ccc(Cl)cc2)c1", "values": [{"measurement": "TGI", "setting": "CCRF-CEM leukemia", "value": "> 100", "unit": "µM"}, {"measurement": "TGI", "setting": "COLO 205 colon", "value": "> 100", "unit": "µM"}, {"measurement": "TGI", "setting": "EKVX NSCLC", "value": "> 100", "unit": "µM"}, {"measurement": "TGI", "setting": "HCT-116 colon", "value": "> 100", "unit": "µM"}, {"measurement": "TGI", "setting": "HL-60(TB) leukemia", "value": "> 100", "unit": "µM"}, {"measurement": "TGI", "setting": "HOP-62 NSCLC", "value": "> 100", "unit": "µM"}, {"measurement": "TGI", "setting": "MALME-3M melanoma", "value": "> 100", "unit": "µM"}, {"measurement": "TGI", "setting": "SF-268 CNS", "value": "> 100", "unit": "µM"}, {"measurement": "TGI", "setting": "SK-MEL-2 melanoma", "value": "> 100", "unit": "µM"}, {"measurement": "TGI", "setting": "SNB-19 CNS", "value": "> 100", "unit": "µM"}]}
{"smiles": "N=C1C=C(N)C(=O)c2[nH]c(=O)ccc21", "values": [{"measurement": "TGI", "setting": "CCRF-CEM leukemia", "value": 5.81, "unit": "µM"}, {"measurement": "TGI", "setting": "COLO 205 colon", "value": 3.14, "unit": "µM"}, {"measurement": "TGI", "setting": "EKVX NSCLC", "value": 3.55, "unit": "µM"}, {"measurement": "TGI", "setting": "HCT-116 colon", "value": 2.48, "unit": "µM"}, {"measurement": "TGI", "setting": "HL-60(TB) leukemia", "value": 4.87, "unit": "µM"}, {"measurement": "TGI", "setting": "HOP-62 NSCLC", "value": 3.59, "unit": "µM"}, {"measurement": "TGI", "setting": "MALME-3M melanoma", "value": 6.19, "unit": "µM"}, {"measurement": "TGI", "setting": "SF-268 CNS", "value": 3.59, "unit": "µM"}, {"measurement": "TGI", "setting": "SK-MEL-2 melanoma", "value": 4.48, "unit": "µM"}, {"measurement": "TGI", "setting": "SNB-19 CNS", "value": 3.86, "unit": "µM"}]}
{"smiles": "CC1(C)OC2C(COS(N)(=O)=O)SC(n3cnc4cncnc43)C2O1", "note": "(stereo not given)", "values": [{"measurement": "GI50", "setting": "CCRF-CEM leukemia", "value": "> 100", "unit": "µM"}, {"measurement": "TGI", "setting": "CCRF-CEM leukemia", "value": "> 100", "unit": "µM"}, {"measurement": "GI50", "setting": "COLO 205 colon", "value": "> 100", "unit": "µM"}, {"measurement": "TGI", "setting": "COLO 205 colon", "value": "> 100", "unit": "µM"}, {"measurement": "GI50", "setting": "EKVX NSCLC", "value": "> 100", "unit": "µM"}, {"measurement": "TGI", "setting": "EKVX NSCLC", "value": "> 100", "unit": "µM"}, {"measurement": "GI50", "setting": "HCT-116 colon", "value": "> 100", "unit": "µM"}, {"measurement": "TGI", "setting": "HCT-116 colon", "value": "> 100", "unit": "µM"}, {"measurement": "GI50", "setting": "HL-60(TB) leukemia", "value": "> 100", "unit": "µM"}, {"measurement": "TGI", "setting": "HL-60(TB) leukemia", "value": "> 100", "unit": "µM"}, {"measurement": "GI50", "setting": "HOP-62 NSCLC", "value": "> 100", "unit": "µM"}, {"measurement": "TGI", "setting": "HOP-62 NSCLC", "value": "> 100", "unit": "µM"}, {"measurement": "GI50", "setting": "MALME-3M melanoma", "value": "> 100", "unit": "µM"}, {"measurement": "TGI", "setting": "MALME-3M melanoma", "value": "> 100", "unit": "µM"}, {"measurement": "GI50", "setting": "SF-268 CNS", "value": "> 100", "unit": "µM"}, {"measurement": "TGI", "setting": "SF-268 CNS", "value": "> 100", "unit": "µM"}, {"measurement": "GI50", "setting": "SK-MEL-2 melanoma", "value": "> 100", "unit": "µM"}, {"measurement": "TGI", "setting": "SK-MEL-2 melanoma", "value": "> 100", "unit": "µM"}, {"measurement": "GI50", "setting": "SNB-19 CNS", "value": "> 100", "unit": "µM"}, {"measurement": "TGI", "setting": "SNB-19 CNS", "value": "> 100", "unit": "µM"}]}
